According to US10851079B2, “Piperidine derivative” (OTSUKA PHARMACEUTICAL CO., LTD., priority 2016, dated 2020):

test system: Mycobacteria tuberculosis (M. tuberculosis H37Rv and M. tuberculosis Kurono); test: Antibacterial test (agar plate dilution method), minimum inhibitory concentration; assay type: cell-based; conditions: Mycobacterium tuberculosis, 7H11 agar medium, about 10^6 CFU/mL inoculum, incubation at 37° C., strains H37Rv and Kurono, read-out: minimum inhibitory concentration against Mycobacteria tuberculosis

Question: How did the MIC turn out when `O[C@@H]1CN(c2c(F)cc(Cl)cc2F)CC[C@@]1(O)COc1cccc2[nH]ncc12` [Example 28] was run?
Answer: ≤ 3.13 µg/mL

Question: `CC(=O)Nc1cc(F)ccc1OC[C@]1(O)CCN(c2c(F)cc(Cl)cc2F)C[C@H]1O` [Example 62] was tested. Which MIC did it give?
Answer: ≤ 3.13 µg/mL

Question: Which MIC does the source give for `O=C1Nc2cccc(OC[C@]3(O)CCN(c4ccc(Cl)cc4F)C[C@H]3O)c2CS1` [Example 68] here?
Answer: ≤ 3.13 µg/mL

Question: With `O[C@@H]1CN(c2c(F)cc(Cl)cc2F)CC[C@@]1(O)COc1cccc2[nH]cnc12` [Example 34] as the molecule, how does the MIC read?
Answer: ≤ 3.13 µg/mL

Question: `O=c1cnc2cccc(OC[C@]3(O)CCN(c4ccc(Cl)cc4F)C[C@H]3O)c2[nH]1` [Example 51] was tested. Which MIC did it give?
Answer: ≤ 3.13 µg/mL

Question: With `O=C1CCc2c(OC[C@]3(O)CCN(c4c(F)cc(Cl)cc4F)C[C@H]3O)cccc21` [Example 17] as the molecule, how does the MIC read?
Answer: ≤ 3.13 µg/mL

Question: Which MIC does the source give for `O=C1Cc2c(OC[C@]3(O)CCN(c4ccc(Br)cc4F)C[C@H]3O)ccc(Cl)c2N1` [Example 120] here?
Answer: ≤ 3.13 µg/mL

Question: With `O=C1COCc2c(cccc2OC[C@]2(O)CCN(c3c(F)cc(Cl)cc3F)C[C@H]2O)N1` [Example 65] as the molecule, how does the MIC read?
Answer: ≤ 3.13 µg/mL

Question: Which MIC does the source give for `O=C1CCCc2c(OCC3(O)CCN(c4c(F)cc(Cl)cc4F)CC3)ccc(Cl)c2N1` [Example 79] here?
Answer: ≤ 3.13 µg/mL

Question: `O[C@@H]1CN(c2ccc(Cl)cc2F)CC[C@@]1(O)COc1ccc(Cl)c2[nH]ncc12` [Example 47] was tested. Which MIC did it give?
Answer: ≤ 3.13 µg/mL

Question: How did the MIC turn out when `Cc1noc2cccc(OC[C@]3(O)CCN(c4c(F)cc(Cl)cc4F)C[C@H]3O)c12` [Example 32] was run?
Answer: ≤ 3.13 µg/mL

Question: For `O=C1CSCc2c(cccc2OC[C@]2(O)CCN(c3c(F)cc(Cl)cc3F)C[C@H]2O)N1` [Example 66], which MIC is on record?
Answer: ≤ 3.13 µg/mL

Question: For `O[C@@H]1CN(c2c(F)cc(Cl)cc2F)CC[C@@]1(O)COc1ccc(F)c2nc(Cl)sc12` [Example 135], which MIC is on record?
Answer: ≤ 3.13 µg/mL

Question: How did the MIC turn out when `O[C@@H]1CN(c2c(F)cc(Cl)cc2F)CC[C@@]1(O)COc1ccc(Cl)c2[nH]ccc12` [Example 113] was run?
Answer: ≤ 3.13 µg/mL

Question: Which MIC does the source give for `O=C1Cc2c(OC[C@]3(O)CCN(c4c(F)cc(Cl)cc4F)C[C@H]3O)ccc(Cl)c2N1` [Example 95] here?
Answer: ≤ 3.13 µg/mL

Question: For `O=c1cnc2c(OC[C@]3(O)CCN(c4ccc(Br)cc4F)C[C@H]3O)cccc2[nH]1` [Example 50], which MIC is on record?
Answer: ≤ 3.13 µg/mL

Question: For `O=C1Cc2c(OCC3(O)CCN(c4c(F)cc(Cl)cc4F)CC3)ccc(F)c2N1` [Example 145, 4-[[1-(4-chloro-2,6-difluorophenyl)-4-hydroxypiperidin-4-yl]methoxy]-7-fluoro-1,3-dihydroindol-2-one], which MIC is on record?
Answer: ≤ 3.13 µg/mL

Question: For `O=C1CCc2c(OC[C@]3(O)CCN(c4c(F)cc(Cl)cc4F)C[C@H]3O)ccc(Cl)c21` [Example 90, 7-chloro-4-[[(3R,4R)-1-(4-chloro-2,6-difluorophenyl)-3,4-dihydroxypiperidin-4-yl]methoxy]-2,3-dihydroinden-1-one], which MIC is on record?
Answer: ≤ 3.13 µg/mL

Question: `CN1Cc2c(cccc2OC[C@]2(O)CCN(c3c(F)cc(Cl)cc3F)C[C@H]2O)NC1=O` [Example 41] was tested. Which MIC did it give?
Answer: ≤ 3.13 µg/mL

Question: How did the MIC turn out when `O=C1Nc2c(Cl)ccc(OC[C@]3(O)CCN(c4ccc(Cl)cc4F)C[C@H]3O)c2CO1` [Example 133] was run?
Answer: ≤ 3.13 µg/mL

Question: How did the MIC turn out when `Cn1c(=O)[nH]c2cccc(OC[C@]3(O)CCN(c4c(F)cc(Cl)cc4F)C[C@H]3O)c21` [Example 11] was run?
Answer: ≤ 3.13 µg/mL

Question: `Cc1c(OC[C@]2(O)CCN(c3c(F)cc(Cl)cc3F)C[C@H]2O)ccc(Cl)c1NC=O` [Example 105] was tested. Which MIC did it give?
Answer: ≤ 3.13 µg/mL

Question: Which MIC does the source give for `O=C1NCc2c(OC[C@]3(O)CCN(c4ccc(Br)cc4F)C[C@H]3O)ccc(F)c2N1` [Example 131] here?
Answer: ≤ 3.13 µg/mL

Question: Which MIC does the source give for `O[C@@H]1CN(c2c(F)cc(Cl)cc2F)CC[C@@]1(O)COc1ccc(Cl)c2cccnc12` [Example 6, (3R,4R)-1-(4-chloro-2,6-difluorophenyl)-4-[(5-chloroquinolin-8-yl)oxymethyl]piperidine-3,4-diol] here?
Answer: ≤ 3.13 µg/mL

Question: With `O=C1COc2c(OC[C@]3(O)CCN(c4c(F)cc(Cl)cc4F)C[C@H]3O)ccc(Cl)c2N1` [Example 111] as the molecule, how does the MIC read?
Answer: ≤ 3.13 µg/mL

Question: `O=C1Nc2cccc(OC[C@]3(O)CCN(c4c(F)cc(Cl)cc4F)C[C@H]3O)c2CO1` [Example 141] was tested. Which MIC did it give?
Answer: ≤ 3.13 µg/mL

Question: With `O=C1CCc2c(OC[C@]3(O)CCN(c4ccc(Br)cc4F)C[C@H]3O)ccnc2N1` [Example 71] as the molecule, how does the MIC read?
Answer: ≤ 3.13 µg/mL

Question: `O[C@@H]1CN(c2c(F)cc(Cl)cc2F)CC[C@@]1(O)COc1ccc(Cl)c2[nH]c(=S)ccc12` [Example 108] was tested. Which MIC did it give?
Answer: ≤ 3.13 µg/mL

Question: `COC(=O)c1cc(Cl)ccc1OC[C@]1(O)CCN(c2c(F)cc(Cl)cc2F)C[C@H]1O` [Example 92] was tested. Which MIC did it give?
Answer: ≤ 3.13 µg/mL

Question: `Cn1c(=O)cnc2c(OC[C@]3(O)CCN(c4c(F)cc(Cl)cc4F)C[C@H]3O)cccc21` [Example 53, 1-methyl-5-[[(3R,4R)-1-(4-chloro-2,6-difluorophenyl)-3,4-dihydroxypiperidin-4-yl]methoxy]quinoxalin-2-one] was tested. Which MIC did it give?
Answer: ≤ 3.13 µg/mL

Question: `O=c1[nH]c2c(F)ccc(OC[C@]3(O)CCN(c4ccc(Br)cc4F)C[C@H]3O)c2s1` [Example 140] was tested. Which MIC did it give?
Answer: ≤ 3.13 µg/mL

Question: For `O[C@@H]1CN(c2c(F)cc(Cl)cc2F)CC[C@@]1(O)COc1ccc(Br)c2ccoc12` [Example 23], which MIC is on record?
Answer: ≤ 3.13 µg/mL

Question: Which MIC does the source give for `OC1CCc2c(OC[C@]3(O)CCN(c4c(F)cc(Cl)cc4F)C[C@H]3O)cccc21` (stereo partly drawn) [Example 24, (3R,4R)-1-(4-chloro-2,6-difluorophenyl)-4-[(1-hydroxy-2,3-dihydro-1H-inden-4-yl)oxymethyl]piperidine-3,4-diol] here?
Answer: ≤ 3.13 µg/mL

Question: `CNC(=O)c1cc(Cl)ccc1OC[C@]1(O)CCN(c2c(F)cc(Cl)cc2F)C[C@H]1O` [Example 101] was tested. Which MIC did it give?
Answer: ≤ 3.13 µg/mL

Question: For `NC(=O)Cc1cc(F)ccc1OC[C@]1(O)CCN(c2c(F)cc(Cl)cc2F)C[C@H]1O` [Example 117, 2-[5-fluoro-2-[[(3R,4R)-1-(4-chloro-2,6-difluorophenyl)-3,4-dihydroxypiperidin-4-yl]methoxy]phenyl]acetamide], which MIC is on record?
Answer: ≤ 3.13 µg/mL

Question: `Cl.O[C@@H]1CN(c2c(F)cc(Cl)cc2F)CC[C@@]1(O)COc1ccc(F)c2c1CCCN2` [Example 44, (3R,4R)-1-(4-chloro-2,6-difluorophenyl)-4-[(8-fluoro-1,2,3,4-tetrahydroquinolin-5-yl)oxymethyl]piperidine-3,4-diol hydrochloride] was tested. Which MIC did it give?
Answer: ≤ 3.13 µg/mL

Question: `O=c1[nH]c2c(F)ccc(OCC3(O)CCN(c4c(F)cc(Cl)cc4F)CC3)c2s1` [Example 147, 7-[[1-(4-chloro-2,6-difluorophenyl)-4-hydroxypiperidin-4-yl]methoxy]-4-fluoro-3H-1,3-benzothiazol-2-one] was tested. Which MIC did it give?
Answer: ≤ 3.13 µg/mL

Question: Which MIC does the source give for `OCc1cc(Cl)ccc1OC[C@]1(O)CCN(c2c(F)cc(Cl)cc2F)C[C@H]1O` [Example 98, (3R,4R)-1-(4-chloro-2,6-difluorophenyl)-4-[[4-chloro-2-(hydroxymethyl)phenoxy]methyl]piperidine-3,4-diol] here?
Answer: ≤ 3.13 µg/mL

Question: `CC(C)(C)N1Cc2c(OC[C@]3(O)CCN(c4c(F)cc(Cl)cc4F)C[C@H]3O)cccc2C1=O` [Example 9] was tested. Which MIC did it give?
Answer: ≤ 3.13 µg/mL

Question: For `OC1(COc2cccc3cnccc23)CCN(c2ccc(Cl)cc2F)CC1` [Example 1, 1-(4-chloro-2-fluorophenyl)-4-(isoquinolin-5-yloxymethyl)piperidin-4-ol], which MIC is on record?
Answer: ≤ 3.13 µg/mL

Question: How did the MIC turn out when `O=C1CSc2c(cccc2OC[C@]2(O)CCN(c3ccc(Cl)cc3F)C[C@H]2O)N1` [Example 76] was run?
Answer: ≤ 3.13 µg/mL

Question: For `O=c1[nH]c2c(Cl)ccc(OC[C@]3(O)CCN(c4c(F)cc(Cl)cc4F)C[C@H]3O)c2s1` [Example 122], which MIC is on record?
Answer: ≤ 3.13 µg/mL

Question: `O=C1CCCc2c(OC[C@]3(O)CCN(c4c(F)cc(Cl)cc4F)C[C@H]3O)ccc(Cl)c2N1` [Example 84] was tested. Which MIC did it give?
Answer: ≤ 3.13 µg/mL

Question: With `Nc1nc2c(Cl)ccc(OC[C@]3(O)CCN(c4c(F)cc(Cl)cc4F)C[C@H]3O)c2s1` [Example 127, (3R,4R)-4-[(2-amino-4-chloro-1,3-benzothiazol-7-yl)oxymethyl]-1-(4-chloro-2,6-difluorophenyl)piperidine-3,4-diol] as the molecule, how does the MIC read?
Answer: ≤ 3.13 µg/mL

Question: With `Cn1c(=O)c(=O)[nH]c2c(OC[C@]3(O)CCN(c4c(F)cc(Cl)cc4F)C[C@H]3O)ccc(F)c21` [Example 146] as the molecule, how does the MIC read?
Answer: ≤ 3.13 µg/mL

Question: `O=C1COc2c(OCC3(O)CCN(c4c(F)cc(Cl)cc4F)CC3)ccc(Cl)c2N1` [Example 80] was tested. Which MIC did it give?
Answer: ≤ 3.13 µg/mL
